Data taken from patent US11534445B2, “Compositions and methods for immune-mediated cancer therapy” (Teclison Limited, priority 2015, dated 2022).
“Also recorded” adds a separate entry of the source. Each block holds one compound with its values, some of them ahead of it.

How the values were obtained:
[1] = tested on: NCI-H460 human lung cancer cells; assay: NCI-H460 lung cancer xenograft in BALB/c nude mice: tirapazamine plus vascular disrupting agent; type: in vivo, mouse; conditions: combretastatin A4 10 mg/kg i.v. or DMXAA 20 mg/kg i.v., 3-5 min after tirapazamine 30 mg/kg i.p.
Protocol: Materials and methods: Human lung cancer NCI-H460 cells were purchased from ATCC and used in this study. Cells were sub-cultured within 5 passages before inoculated into the mice. After the animals' acclimation period, approximately 1.5×10^6 NCI-H460 cells in 200 μL of serum-free media/matrigel (50:50 v/v) were injected subcutaneously to each mouse under anesthesia with 3-4% isoflurane. BALB/c nude mice, male, about 4-5 weeks and 18-20 g in weight were purchased from Shanghai SLAC Laboratory Animal Co. Ltd., China and housed in vivarium in 3-5 mice/cage by treatment group. Mice had free access to food (irradiated, Shanghai SLAC Laboratory Animal Co. Ltd. China) and water (municipal tap water filtered by Mol Ultrapure Water System).
Mice from each group were euthanized with CO2 asphyxiation followed by cervical dislocation at day 18 after the first dose, tumors were collected, weighed, and their pictures taken. The formalin fixed tumors were used for histopathology work. After formalin fixation, the tumors were paraffin embedded to get FFPE blocks. One block was made for each tumor chunk from one mouse. The FFPE blocks were sectioned at about 4 μm thick and processed for H&E staining, histopathology examination, and quantification of tumor necrosis. Detailed results are discussed further below. […]

[2] = rat, in vivo
hepatocellular carcinoma = assay: Phase I dose-defining study of tirapazamine combined with trans-arterial embolization (TAE): efficacy by contrast MRI, modified RECIST; type: in vivo, human; conditions: for response on contrast enhanced MRI at 6th week after embolization: individual patients/lesions treated with tirapazamine before TAE
Text: (§1) In order to test the clinical tolerability and efficacy of tirapazamine combined with TAE in humans, a phase I dose-defining study was initiated in US major medical centers to examine the tolerability, preliminary efficacy and determine the recommended phase 2 dose (RP2D) of tirapazamine when combined with TAE. HCC patients enrolled were Child-Pugh class A, were not surgical candidates and had up to 4 tumor lesions with no tumor lesion size greater than 10 cm and were suitable for embolization. The results of the first 12 evaluable patients were available for analysis.
(§2) Three patients were enrolled in either cohort.
The preliminary efficacy of the first 12 patients was analyzed and is exemplified in FIG. 4. Efficacy outcome is read by contrast […] based on modified Response Evaluation Criteria In Solid Tumors (RECIST) criteria so that only the size of the viable tumor was measured. […] Three additional patients had over 30% necrosis or partial response (PR). The overall response rate (CR+PR) was 83%.

[3] = Phase I dose-defining study of tirapazamine combined with TAE: tolerability; type: in vivo, human; conditions: 3 patients per cohort
Text: as §1, §2

[4] = mouse, in vivo
Protocol: (§3) Treatment of tumor-bearing HBx mice with tirapazamine and hepatic artery ligation: The HBx transgenic mice were subjected to the left hepatic artery ligation for 40 min and the silk ligation was subsequently untied. During the studies on the drug effects, 0.9% saline, doxorubicin (10 mg/kg), or TPZ (3 mg/kg) were injected into the tail vein of each mouse for 7 min before the hepatic artery ligation. After completion of the injection, a midline laparotomy was performed to expose the left lobe of liver and liver hilum to dissect the left or common hepatic artery for transient ligation. All mice were anaesthetized with intraperitoneal injection of 400 mg/kg avertin (Sigma-Aldrich, St. Louis, Mo., USA) during experiments. Serial serum samples were collected for evaluating the ALT and total bilirubin by using ARKRAY Spotchem EZ Chemistry Analyzer SP-4430 (Arkray, Inc., Kyoto, Japan) within the first week. After 1 or 7 days, the liver tissues were collected for HE staining.

[5] = tested on: hepatocellular carcinoma (HCC) in HBx transgenic mice; assay: Tirapazamine or doxorubicin plus left hepatic artery ligation (HAL) in tumor-bearing HBx transgenic mice: tumor necrosis by H&E histology; type: in vivo, mouse; conditions: for necrosis of HCCs in the territory of the left HAL, Day 7 (H&E): tirapazamine 3 mg/kg (n=3) or doxorubicin 10 mg/kg (n=2) IV + left HAL 40 min; for necrosis in the HCC within the territory of HAL, Day 1 post-treatment: tirapazamine 3 mg/kg or doxorubicin 10 mg/kg IV tail vein + transient left HAL, n=1 per group, histopathology
Protocol: Materials and methods: All the HBx transgenic mice were bred and followed-up in a specific pathogen-free facility; the tails of individual mice were subsequently collected for the genotyping process on weaning at 3 weeks of age. […] Transgenic mice having tumors 0.5-2 cm in diameter were used for the study.
as §3
Histology and morphometric analysis of tumor necrosis: For each mouse, the liver tissue containing the whole tumor and the adjacent non-tumorous region were fixed overnight in 10% formaldehyde and embedded in paraffin. The liver tissue sections (3 μm thickness) crossing the whole tumor were subjected to hematoxylin and eosin (H&E) staining for histological analysis. The percentage of necrosis in each tumor was quantified by dividing the necrotic area by the total tumor area in five cross sections covering the whole tumor, by using the ImageJ software (Version 1.46r, National Institutes of Health, Bethesda, Md., USA).
The HBx transgenic mice spontaneously develop hepatocellular carcinoma at approximately 18 months. […] Next, the efficacy of tirapazamine in combination with HAL was investigated and compared with a commonly used chemotherapy agent, doxorubicin, in TACE. A small group was first tested to compare the effects of saline (n=1), doxorubicin (10 mg/kg, n=1) and tirapazamine (3 mg/kg, n=1) to treat HBx transgenic mice that had palpable HCC, along with transient left HAL. Mice were sacrificed 1 day after treatment with tirapazamine and transient left HAL.
The same study was conducted to examine the histopathology changes at 7 days post treatment. The number of mice used for each group were saline (n=2), doxorubicin (10 mg/kg, n=2) and tirapazamine (3 mg/kg, n=3).

SMILES: Cc1ccc2c(=O)c3cccc(CC(=O)O)c3oc2c1C [DMXAA, 5,6-Dimethylxanthenone-4-acetic acid]
effect on tumor vasculature [1]: nearly immediate shutdown of the tumor vasculature

SMILES: COc1ccc(/C=C\c2cc(OC)c(OC)c(OC)c2)cc1O [combretastatin A4]
effect on tumor vasculature [1]: nearly immediate shutdown of the tumor vasculature

SMILES: Nc1n[n+]([O-])c2ccccc2[n+]1[O-] [tirapazamine]
tolerability of IA administration followed by hepatic artery ligation [2]: well tolerated profile | overall response rate (CR+PR) (hepatocellular carcinoma; first 12 evaluable patients): 83% | patients with over 30% necrosis or partial response (PR) (hepatocellular carcinoma; first 12 evaluable patients): Three | response on contrast enhanced MRI at 6th week after embolization (hepatocellular carcinoma): complete response (CR) | response on contrast enhanced MRI at 6th week after embolization (hepatocellular carcinoma; listed as Tirapazamine): two treated lesions achieved CR | largest diameter of untreated lesion at 6th week follow-up (hepatocellular carcinoma; one patient, baseline 15 mm, two other lesions (26 and 10 mm) treated with tirapazamine + TAE): 9 mm | complete response (CR) by modified RECIST (hepatocellular carcinoma; single treatment of tirapazamine with TAE, first 12 patients): 6/12 | toxicities / dose limiting toxicities ([3]; intra-arterial (IA) via hepatic artery 5 and 10 mg/m^2 + TAE): no observed toxicities or dose limiting toxicities (DLT) | toxicities / dose limiting toxicities ([3]; systemic IV infusion 5 and 10 mg/m^2 + TAE): no observed toxicities or dose limiting toxicities (DLT) | total bilirubin in serum [4]: within the normal range | tumor necrosis at dissection on Day 7 (pale color) ([5]; drug IV + transient HAL, FIG. 2D): evident that tumor necrosis occurred | necrosis of HCCs in the territory of the left HAL, Day 7 (H&E) [5]: 90-99% | inflammatory cell infiltration at margin of necrotic tumor ([5]; tirapazamine 3 mg/kg IV + left HAL, day 7, FIG. 3 inserts): high degree of inflammatory cell infiltration; also recorded: very strong inflammatory infiltrates | necrosis in the HCC within the territory of HAL, Day 1 post-treatment [5]: more than 99% | effective dose combined with transient HAL ([5]; titration study, HBx transgenic mouse model): 3 mg/kg

total bilirubin in serum [4]: within the normal range
SMILES: COc1cccc2c1C(=O)c1c(O)c3c(c(O)c1C2=O)C[C@@](O)(C(=O)CO)C[C@@H]3O[C@H]1C[C@H](N)[C@H](O)[C@H](C)O1 [doxorubicin]
necrosis of HCCs in the territory of the left HAL, Day 7 (H&E) [5]: Little to no pathological changes | necrosis in the HCC within the territory of HAL, Day 1 post-treatment [5]: about 5%
